Experimental findings from patent US7932270B2 (Cytokinetics, Inc., priority 2006, dated 2011) are described below.

Structures are written as SMILES.

For this test, the target named is T1, chicken gizzard smooth muscle myosin subfragment-1 chemically crosslinked to cardiac or skeletal actin (Gallus gallus, UniProt P10587).
T1 construct: chicken gizzard smooth muscle myosin subfragment-1; from tissue; host or cells: chicken gizzard
In words: Smooth muscle myosin ATPase dose response assay (pyruvate kinase/horseradish peroxidase/pyruvate oxidase-coupled, amplex red fluorescence). The class given is biochemical. The note with it: read-out: IC50 Arithmetic Mean. An outline of the steps: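 ATPase monitored by amplex red fluorescence (ex 480/em 615 nm) via pyruvate oxidase/HRP coupling, pH 7.00, ATP 0.15 mM. Enzyme: smooth muscle S1-actin crosslinked conjugate, amount set empirically by titration. Dose-response fitted with 4-parameter Hill equation for IC50.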

T1 sequence (P02607 2-151): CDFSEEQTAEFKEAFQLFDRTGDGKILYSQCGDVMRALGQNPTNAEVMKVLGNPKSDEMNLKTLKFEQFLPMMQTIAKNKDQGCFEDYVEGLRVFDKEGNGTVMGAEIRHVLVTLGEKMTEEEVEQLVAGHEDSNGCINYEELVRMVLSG
T1 sequence (P10587 84-789): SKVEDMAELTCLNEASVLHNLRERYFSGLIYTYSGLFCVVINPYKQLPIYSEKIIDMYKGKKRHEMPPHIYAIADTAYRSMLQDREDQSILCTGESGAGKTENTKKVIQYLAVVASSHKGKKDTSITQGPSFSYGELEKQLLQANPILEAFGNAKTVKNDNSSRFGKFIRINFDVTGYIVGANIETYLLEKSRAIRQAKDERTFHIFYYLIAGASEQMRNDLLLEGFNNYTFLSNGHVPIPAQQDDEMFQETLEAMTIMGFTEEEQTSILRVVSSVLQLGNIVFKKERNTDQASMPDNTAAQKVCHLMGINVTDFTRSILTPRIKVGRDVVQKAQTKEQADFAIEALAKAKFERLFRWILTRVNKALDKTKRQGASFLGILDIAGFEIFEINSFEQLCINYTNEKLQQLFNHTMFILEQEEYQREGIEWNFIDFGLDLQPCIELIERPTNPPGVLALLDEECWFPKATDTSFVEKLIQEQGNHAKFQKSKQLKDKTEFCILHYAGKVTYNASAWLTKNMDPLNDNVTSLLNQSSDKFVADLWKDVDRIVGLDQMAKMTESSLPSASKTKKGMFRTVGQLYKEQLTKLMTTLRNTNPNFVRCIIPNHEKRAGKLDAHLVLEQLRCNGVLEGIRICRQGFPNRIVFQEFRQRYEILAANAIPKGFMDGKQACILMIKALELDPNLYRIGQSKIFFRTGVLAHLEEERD

With `CN1CCN(CCCNC(=O)c2ccc(-c3ccccc3C#N)nc2NCCc2cccc(F)c2)CC1` [(6-(2-cyanophenyl)-2-{[2-(3-fluorophenyl)ethyl]amino}(3-pyridyl))-N-[3-(4-methylpiperazinyl)propyl]carboxamide], the 50% inhibitory concentration (IC50) was 3060 nM. In the case of `N#Cc1ccccc1-c1ccc(C(=O)NCC(CO)CO)c(NCCc2cccc(F)c2)n1` [(6-(2-cyanophenyl)-2-{[2-(3-fluorophenyl)ethyl]amino}(3-pyridyl))-N-[3-hydroxy-2-(hydroxymethyl)propyl]carboxamide] it was 209 nM. `Cn1ccc(CNC(=O)c2ccc(-c3ccccc3C#N)nc2NCCc2cccc(F)c2)n1` [(6-(2-cyanophenyl)-2-{[2-(3-fluorophenyl)ethyl]amino}(3-pyridyl))-N-[(1-methylpyrazol-3-yl)methyl]carboxamide]: the IC50 amounted to 32 nM. In the case of `Cn1nccc1CNC(=O)c1ccc(-c2ccccc2C#N)nc1NCCc1cccc(F)c1` [(6-(2-cyanophenyl)-2-{[2-(3-fluorophenyl)ethyl]amino}(3-pyridyl))-N-[(1-methylpyrazol-5-yl)methyl]carboxamide] it was 31 nM. Next, `COc1ncccc1CNC(=O)c1ccc(-c2ccccc2C#N)nc1NCCc1cccc(F)c1` [(6-(2-cyanophenyl)-2-{[2-(3-fluorophenyl)ethyl]amino}(3-pyridyl))-N-[(2-methoxy(3-pyridyl))methyl]carboxamide]: 87 nM; `Cc1ncccc1CNC(=O)c1ccc(-c2ccccc2C#N)nc1NCCc1cccc(F)c1` [(6-(2-cyanophenyl)-2-{[2-(3-fluorophenyl)ethyl]amino}(3-pyridyl))-N-[(2-methyl(3-pyridyl))methyl]carboxamide]: 22 nM.

Consider `N#Cc1ccccc1-c1ccc(C(=O)NCC2CCCNC2=O)c(NCCc2cccc(F)c2)n1` (stereo not drawn) [(6-(2-cyanophenyl)-2-{[2-(3-fluorophenyl)ethyl]amino}(3-pyridyl))-N-[(2-oxo(3-piperidyl))methyl]carboxamide], for which the IC50 came out at 14 nM. Next, `N#Cc1ccccc1-c1ccc(C(=O)NCC2CCNC2=O)c(NCCc2cccc(F)c2)n1` (stereo not drawn) [(6-(2-cyanophenyl)-2-{[2-(3-fluorophenyl)ethyl]amino}(3-pyridyl))-N-[(2-oxopyrrolidin-3-yl)methyl]carboxamide]: 32 nM. Next, `N#Cc1ccccc1-c1ccc(C(=O)NCc2cccnc2CNC(=O)c2ccc(-c3ccccc3C#N)nc2NCCc2cccc(F)c2)c(NCCc2cccc(F)c2)n1` [(6-(2-cyanophenyl)-2-{[2-(3-fluorophenyl)ethyl]amino}(3-pyridyl))-N-[(3-{[(6-(2-cyanophenyl)-2-{[2-(3-fluorophenyl)ethyl]amino}(3-pyridyl))carbonylamino]methyl}(2-pyridyl))methyl]carboxamide]: 2440 nM; `N#Cc1ccc(CNC(=O)c2ccc(-c3ccccc3C#N)nc2NCCc2cccc(F)c2)cc1` [(6-(2-cyanophenyl)-2-{[2-(3-fluorophenyl)ethyl]amino}(3-pyridyl))-N-[(4-cyanophenyl)methyl]carboxamide]: 968 nM; `N#Cc1ccccc1-c1ccc(C(=O)NCc2ccc(F)cc2)c(NCCc2cccc(F)c2)n1` [(6-(2-cyanophenyl)-2-{[2-(3-fluorophenyl)ethyl]amino}(3-pyridyl))-N-[(4-fluorophenyl)methyl]carboxamide]: 2110 nM. Next, `Cc1ccc(CNC(=O)c2ccc(-c3ccccc3C#N)nc2NCCc2cccc(F)c2)cc1` [(6-(2-cyanophenyl)-2-{[2-(3-fluorophenyl)ethyl]amino}(3-pyridyl))-N-[(4-methylphenyl)methyl]carboxamide]: 24300 nM; `COc1ccc(CNC(=O)c2ccc(-c3ccccc3C#N)nc2NCCc2cccc(F)c2)cn1` [(6-(2-cyanophenyl)-2-{[2-(3-fluorophenyl)ethyl]amino}(3-pyridyl))-N-[(6-methoxy(3-pyridyl))methyl]carboxamide]: 8100 nM; `Cc1cccc(CNC(=O)c2ccc(-c3ccccc3C#N)nc2NCCc2cccc(F)c2)n1` [(6-(2-cyanophenyl)-2-{[2-(3-fluorophenyl)ethyl]amino}(3-pyridyl))-N-[(6-methyl(2-pyridyl))methyl]carboxamide]: 54 nM. As for `Cc1ccc(CNC(=O)c2ccc(-c3ccccc3C#N)nc2NCCc2cccc(F)c2)cn1` [(6-(2-cyanophenyl)-2-{[2-(3-fluorophenyl)ethyl]amino}(3-pyridyl))-N-[(6-methyl(3-pyridyl))methyl]carboxamide], the half-maximal inhibitory concentration (IC50) was found to be 426 nM. Next, `N#Cc1ccccc1-c1ccc(C(=O)NCc2ccc(N3CCOCC3)nc2)c(NCCc2cccc(F)c2)n1` [(6-(2-cyanophenyl)-2-{[2-(3-fluorophenyl)ethyl]amino}(3-pyridyl))-N-[(6-morpholin-4-yl(3-pyridyl))methyl]carboxamide]: 16900 nM; `N#Cc1ccccc1-c1ccc(C(=O)NCC2CCCC(=O)N2)c(NCCc2cccc(F)c2)n1` (stereo not drawn) [(6-(2-cyanophenyl)-2-{[2-(3-fluorophenyl)ethyl]amino}(3-pyridyl))-N-[(6-oxo(2-piperidyl))methyl]carboxamide]: 29 nM; `N#Cc1ccccc1-c1ccc(C(=O)NCc2ccc(N3CCNCC3)nc2)c(NCCc2cccc(F)c2)n1` [(6-(2-cyanophenyl)-2-{[2-(3-fluorophenyl)ethyl]amino}(3-pyridyl))-N-[(6-piperazinyl(3-pyridyl))methyl]carboxamide]: 1750 nM. In the case of `N#Cc1ccccc1-c1ccc(C(=O)NCc2ccc(N3CCCC3)nc2)c(NCCc2cccc(F)c2)n1` [(6-(2-cyanophenyl)-2-{[2-(3-fluorophenyl)ethyl]amino}(3-pyridyl))-N-[(6-pyrrolidinyl(3-pyridyl))methyl]carboxamide] it was 66600 nM. In the case of `N#Cc1ccccc1-c1ccc(C(=O)NCC2CCCCC(=O)N2)c(NCCc2cccc(F)c2)n1` (stereo not drawn) [(6-(2-cyanophenyl)-2-{[2-(3-fluorophenyl)ethyl]amino}(3-pyridyl))-N-[(7-oxoazaperhydroepin-2-yl)methyl]carboxamide] it was 95 nM; in that of `CNC(=O)NCCNC(=O)c1ccc(-c2ccccc2C#N)nc1NCCc1cccc(F)c1` [(6-(2-cyanophenyl)-2-{[2-(3-fluorophenyl)ethyl]amino}(3-pyridyl))-N-{2-[(methylamino)carbonylamino]ethyl}carboxamide], 866 nM; in that of `CS(=O)(=O)NCCNC(=O)c1ccc(-c2ccccc2C#N)nc1NCCc1cccc(F)c1` [(6-(2-cyanophenyl)-2-{[2-(3-fluorophenyl)ethyl]amino}(3-pyridyl))-N-{2-[(methylsulfonyl)amino]ethyl}carboxamide], 326 nM. In the case of `CN(CCNC(=O)c1ccc(-c2ccccc2C#N)nc1NCCc1cccc(F)c1)S(C)(=O)=O` [(6-(2-cyanophenyl)-2-{[2-(3-fluorophenyl)ethyl]amino}(3-pyridyl))-N-{2-[methyl(methylsulfonyl)amino]ethyl}carboxamide], the IC50 came out at 1380 nM. For the molecule `CC(C)(CNC(=O)c1ccc(-c2ccccc2C#N)nc1NCCc1cccc(F)c1)NS(C)(=O)=O` [(6-(2-cyanophenyl)-2-{[2-(3-fluorophenyl)ethyl]amino}(3-pyridyl))-N-{2-methyl-2-[(methylsulfonyl)amino]propyl}carboxamide], the IC50 is 1470 nM.

Broadly, the IC50 is the concentration that inhibits the measured activity by half.
